Laboratory results taken from patent US8399515B2, “Five and fifteen carbon fatty acids for treating metabolic disorders and as nutritional supplements” (Baylor Research Institute, priority 2003, dated 2013).
“And” between values parts separate entries of the source, which are not always exact repeats. Equal values may be shown once.

Columns and labels:
[1] = tested on: fibroblasts from patients with VLCAD deficiency, non-cardiac milder phenotype; assay: Propionylcarnitine from oxidation of odd-carbon fatty acids in VLCAD (non-cardiac) fibroblasts; type: cell-based, human
Experimental: (§1) Fibroblasts obtained from patients with inherited defects of mitochondrial fat oxidation were cultured in the presence of omega deuterated odd-carbon numbered fatty acids, as described in Roe, C. R., Sweetman, L., Roe, D. S., David, F., Brunengraber, H., “Effective Dietary Treatment of Cardiomyopathy & Rhabdomyolysis in Long-Chain Fat Oxidation Disorders using an Anaplerotic Odd-Chain Triglyceride,” J. Clin. Invest. 110 (2): 259-269 (2002).
(§2) The data in Table 1 represents testing of cultured fibroblasts derived from ten patients afflicted with Very-long-chain acyl-CoA dehydrogenase (VLCAD) deficiency (six patients with the severe cardiac form and four with the non-cardiac milder phenotype), two patients with Mitochondrial Trifunctional Protein (MTP) deficiency, five patients having L-3-hydroxy-acyl-CoA dehydrogenase (LCHAD) deficiency and three patients with Short-chain acyl-CoA dehydrogenase (SCAD) deficiency.

[2] = tested on: fibroblasts from patients with Mitochondrial Trifunctional Protein (MTP) deficiency; assay: Propionylcarnitine from oxidation of odd-carbon fatty acids in MTP fibroblasts; type: cell-based, human
Experimental: as §1, §2

[3] = tested on: fibroblasts from patients with Very-long-chain acyl-CoA dehydrogenase (VLCAD) deficiency, severe cardiac form; assay: Propionylcarnitine from oxidation of odd-carbon fatty acids in VLCAD (cardiac) fibroblasts; type: cell-based, human
Experimental: as §1, §2

[4] = tested on: control / normal fibroblasts; assay: Fate of odd-carbon fatty acids in control (normal) fibroblasts; type: cell-based, human; settings: NORMAL fibroblasts
Experimental: Fibroblasts obtained from patients with inherited defects of mitochondrial fat oxidation were cultured in the presence of omega deuterated odd-carbon numbered fatty acids, as described in Roe, C. R., Sweetman, L., Roe, D. S., David, F., Brunengraber, H., “Effective Dietary Treatment of Cardiomyopathy & Rhabdomyolysis in Long-Chain Fat Oxidation Disorders using an Anaplerotic Odd-Chain Triglyceride,” J. Clin. Invest. 110 (2): 259-269 (2002). […]

[5] = tested on: fibroblasts from patients with L-3-hydroxy-acyl-CoA dehydrogenase (LCHAD) deficiency; assay: Propionylcarnitine from oxidation of odd-carbon fatty acids in LCHAD fibroblasts; type: cell-based, human
Experimental: as §1, §2

[6] = tested on: fibroblasts from patients with inherited defects of mitochondrial fat oxidation; assay: Propionylcarnitine production in all fat-oxidation-defective fibroblast cell lines (comparison in words); type: cell-based, human; settings: all VLCAD, MTP, LCHAD, SCAD cell lines; C5 versus C7; C15 versus C5 or C7
Experimental: as §1, §2

[7] = tested on: fibroblasts from patients with Short-chain acyl-CoA dehydrogenase (SCAD) deficiency; assay: Propionylcarnitine from oxidation of odd-carbon fatty acids in SCAD fibroblasts; type: cell-based, human
Experimental: as §1, §2

SCAD patient = assay: Meal test with triheptanoin or tripentanoin in a SCAD patient; type: in vivo, human
Source text: (§3) A VLCAD patient and an SCAD patient, both of whom had gastrostomy sites for enteral administration, each were provided with separate meals containing equimolar amounts of triheptanoin (C7) and tripentanoin (C5) at different times on the same day. Each patient was given the amount in 1 of 4 daily meals equivalent to a diet of 3 gms/Kg/day or about 30% of total Kcal as the triglyceride. Serial blood samples were obtained hourly and individual urines were collected at baseline and during the meal.
(§4) The patient with VLCAD (FIG. 3) was monitored over a 3 hour interval and the SCAD patient was monitored for 4 hours after beginning the meal. […] One way the VLCAD patient was monitored was for myristenoylcamitine (cis-5-C14:1), which reflects oxidation of oleate and is therefore an indication of ongoing lipolysis during the meal tests (it is not derived from either C7 or C5). […] These changes are not observed with even-carbon triglycerides.
The second patient with SCAD deficiency (FIG. 4) had been receiving the triheptanoin diet for more than 2 years. This disorder is due to an inherited deficiency of butyryl-CoA dehydrogenase (SCAD) and is known to oxidize even carbon fatty acids of 4-6 carbon chain length.
In FIG. 4, C7-C3 represents the blood levels of C3 derived from C7; and C5-C3 represents the blood levels of C3 derived from C5, C7-C5 represents blood levels of pentanoylcarnitine (C5) derived from C7 meals and C5-C5 represents blood levels of pentanoylcarnitine (C5) derived from C5 meals. […] C7-C4 and C5-C4 represent the levels of the disease-specific acylcarnitine (butyrylcarnitine [C4]) observed in SCAD deficiency. […] This increased quantity of C3 corresponds to those observed for SCAD deficiency in the fibroblast studies above shown in Table 1.

VLCAD patient = assay: Meal test with triheptanoin or tripentanoin in a VLCAD patient; type: in vivo, human; design: Myristenoylcarnitine Level: unit not given here; settings: for Myristenoylcarnitine Level / Propionylcarnitine Level: blood
Source text: as §3, §4

[8] = tested on: MCAD-deficient fibroblasts; assay: Fate of odd-carbon fatty acids in MCAD-deficient fibroblasts; type: cell-based, human
Experimental: as §1
Fibroblasts from four patients with MCAD deficiency and one heterozygote (carrier) indicate that odd-carbon fatty acids containing more than seven carbons can not be effectively used in that disease. […]

[9] = VLCAD non-cardiac fibroblasts, one line per patient
[10] = average over VLCAD non-cardiac cell lines
[11] = MTP fibroblasts, one line per patient
[12] = VLCAD cardiac fibroblasts, one line per patient
[13] = average over VLCAD cardiac cell lines
[14] = LCHAD fibroblasts, one line per patient
[15] = SCAD fibroblasts, one line per patient

`CCCCC(=O)O` [C5, n-pentanoic acid] was tested. Which “Ratio: C5/C7 (propionylcarnitine)” value [1, 9] did it give?
The value was 2.0 and 1.4 (2×) and 2.1.

And the “Ratio: C5/C15 (propionylcarnitine)” value [1, 9]?
The value was 2.7 and 1.5 and 1.4 and 1.7.

And the “Propionylcarnitine from oxidation of fatty acid” value ([1]; VLCAD non-cardiac fibroblasts, one line per patient, 72 hours incubation)?
The value was 44.4 nmol/mg Protein/72 hours and 28.3 nmol/mg Protein/72 hours and 51.8 nmol/mg Protein/72 hours and 19.7 nmol/mg Protein/72 hours.

And the “AVG. Ratio: C5/C7” value [1, 10]?
Its value is “AVG. 1.7”.

And the “AVG. Ratio: C5/C15” value [1, 10]?
The value was “AVG. 1.8”.

What about the “Ratio: C5/C7 (propionylcarnitine)” value [2, 11] of the same compound?
Its value is 1.6 and 1.3.

What about the “Ratio: C5/C15 (propionylcarnitine)” value [2, 11] of the same compound?
Its value is 1.2 and 1.4.

What about the “Propionylcarnitine from oxidation of fatty acid” value ([2]; MTP fibroblasts, one line per patient, 72 hours incubation) of the same compound?
Its value is 38.3 nmol/mg Protein/72 hours and 63.6 nmol/mg Protein/72 hours.

What about the “AVG. Ratio: C5/C7” value ([2]; average over MTP cell lines) of the same compound?
The value was “AVG. 1.5”.

And the “AVG. Ratio: C5/C15” value ([2]; average over MTP cell lines)?
Its value is “AVG. 1.3”.

And the “Ratio: C5/C7 (propionylcarnitine)” value [3, 12]?
Its value is 1.6 (2×) and 2.1 and 1.5 and 1.7 and 2.0.

What about the “Ratio: C5/C15 (propionylcarnitine)” value [3, 12] of the same compound?
The value was 4.0 and 5.2 and 3.1 and 3.5 and 5.3 and 5.1.

And the “Propionylcarnitine from oxidation of fatty acid” value ([3]; VLCAD cardiac fibroblasts, one line per patient, 72 hours incubation)?
Its value is 47.0 nmol/mg Protein/72 hours and 27.2 nmol/mg Protein/72 hours and 67.8 nmol/mg Protein/72 hours and 28.2 nmol/mg Protein/72 hours and 34.7 nmol/mg Protein/72 hours and 50.6 nmol/mg Protein/72 hours.

What about the “AVG. Ratio: C5/C7” value [3, 13] of the same compound?
The value was “AVG. 1.8”.

And the “AVG. Ratio: C5/C15” value [3, 13]?
The value was “AVG. 4.4”.

What about the “Propionylcarnitine from odd carbon precursor” value [4] of the same compound?
Its value is 25.8 nmol/mg Protein/72 hours.

And the “Ratio: C5/C7 (propionylcarnitine)” value [5, 14]?
Its value is 1.2 and 1.5 (2×) and 2.3 and 1.6.

What about the “Ratio: C5/C15 (propionylcarnitine)” value [5, 14] of the same compound?
The value was 1.9 and 2.3 and 2.2 and 3.5 and 2.6.

What about the “Propionylcarnitine from oxidation of fatty acid” value ([5]; LCHAD fibroblasts, one line per patient, 72 hours incubation) of the same compound?
Its value is 65.4 nmol/mg Protein/72 hours and 34.5 nmol/mg Protein/72 hours and 35.0 nmol/mg Protein/72 hours and 24.4 nmol/mg Protein/72 hours and 36.8 nmol/mg Protein/72 hours.

And the “AVG. Ratio: C5/C7” value ([5]; average over LCHAD cell lines)?
Its value is “AVG. 1.6”.

And the “AVG. Ratio: C5/C15” value ([5]; average over LCHAD cell lines)?
The value was “AVG. 2.5”.

What about the “Quantity of propionylcarnitine produced, compared with the other odd-carbon fatty acids” value [6] of the same compound?
Its value is “consistently greater quantities of propionylcarnitine”.

And the “Ratio: C5/C7 (propionylcarnitine)” value [7, 15]?
Its value is 1.4 (2×) and 1.2.

And the “Ratio: C5/C15 (propionylcarnitine)” value [7, 15]?
The value was 1.4 (2×) and 1.3.

And the “Propionylcarnitine from oxidation of fatty acid” value ([7]; SCAD fibroblasts, one line per patient, 72 hours incubation)?
Its value is 80.2 nmol/mg Protein/72 hours and 43.6 nmol/mg Protein/72 hours and 48.2 nmol/mg Protein/72 hours.

And the “AVG. Ratio: C5/C7” value ([7]; average over SCAD cell lines)?
Its value is “AVG. 1.3”.

What about the “AVG. Ratio: C5/C15” value ([7]; average over SCAD cell lines) of the same compound?
The value was “AVG. 1.4”.

What about the “Amount of C3 produced following the meal, C5 compared with C7” value (SCAD patient) of the same compound?
The value was “significantly greater”.

What about the “Limitation in oxidation of the meal triglyceride” value (SCAD patient) of the same compound?
The value was “no limitation in oxidation”.

What about the “Change in C4 (butyrylcarnitine) during the meal” value (SCAD patient; C4 already at very low levels) of the same compound?
Its value is “no significant decrease in C4”.

And the “Clinical or biochemical toxicity” value (SCAD patient; meal test, 4 hours)?
Its value is “no clinical or biochemical toxicity”.

And the “Relative Blood Levels of Fatty Acid Chain Lengths: C3” value (“Relative Blood Levels … C3” for short) (SCAD patient; time 0 hours)?
The value was 2.61.

What about the “Relative Blood Levels of Fatty Acid Chain Lengths: C4 (butyrylcarnitine)” value (“Relative Blood Levels … (butyrylcarnitine)” for short) (SCAD patient; time 0 hours) of the same compound?
The value was 0.30.

What about the “Relative Blood Levels … C3” value (SCAD patient; time 1 hours) of the same compound?
The value was 2.78.

What about the “Relative Blood Levels … (butyrylcarnitine)” value (SCAD patient; time 1 hours) of the same compound?
Its value is 0.26.

And the “Relative Blood Levels … C3” value (SCAD patient; time 2 hours)?
The value was 3.19.

What about the “Relative Blood Levels … (butyrylcarnitine)” value (SCAD patient; time 2 hours) of the same compound?
Its value is 0.27.

And the “Relative Blood Levels … C3” value (SCAD patient; time 3 hours)?
Its value is 3.73.

And the “Relative Blood Levels … (butyrylcarnitine)” value (SCAD patient; time 3 hours)?
Its value is 0.30.

And the “Relative Blood Levels … C3” value (SCAD patient; time 4 hours)?
The value was 4.99.

What about the “Relative Blood Levels … (butyrylcarnitine)” value (SCAD patient; time 4 hours) of the same compound?
The value was 0.27.

What about the “Myristenoylcarnitine Level” value (VLCAD patient; time 0 hours, cis-5-C14:1, marker of lipolysis) of the same compound?
Its value is 3.07.

What about the “Propionylcarnitine Level” value (VLCAD patient; time 0 hours, enteral meal via gastrostomy) of the same compound?
The value was 1.38.

And the “Myristenoylcarnitine Level” value (VLCAD patient; time 1 hours)?
The value was 2.89.

What about the “Propionylcarnitine Level” value (VLCAD patient; time 1 hours) of the same compound?
The value was 3.15.

And the “Myristenoylcarnitine Level” value (VLCAD patient; time 2 hours)?
Its value is 2.04.

And the “Propionylcarnitine Level” value (VLCAD patient; time 2 hours)?
The value was 3.51.

What about the “Myristenoylcarnitine Level” value (VLCAD patient; time 3 hours) of the same compound?
Its value is 3.39.

What about the “Propionylcarnitine Level” value (VLCAD patient; time 3 hours) of the same compound?
Its value is 5.63.

What about the “Clinical or biochemical toxicity” value (VLCAD patient; meal test, 3 hour interval) of the same compound?
Its value is “no clinical or biochemical toxicity”.

What about the “Propionyl-CoA produced in culture (in words)” value ([8]; MCAD 1 and MCAD 2 cell lines, compared with normal) of the same compound?
The value was “normal or greater than normal”.

What about the “Propionylcarnitine from odd carbon precursor” value ([8]; MCAD-1 fibroblast cell line) of the same compound?
The value was 25.8 nmol/mg Protein/72 hours.

What about the “Propionylcarnitine from odd carbon precursor” value ([8]; MCAD-2 fibroblast cell line) of the same compound?
The value was 58.5 nmol/mg Protein/72 hours.
